Laboratory results reported in US9121022B2, “Method for controlling herbicide-resistant plants” (priority 2010, dated 2015).

What was measured:
[1] = system: Nicotiana benthamiana plants (endogenous PDS, EPSPS, RuBisCO genes); test: PDS, EPSPS or RuBisCO anti-sense polynucleotides on Nicotiana benthamiana, plant height and phenotype (Example 33); format: in vivo
Source text: An anti-sense polynucleotide with the sequence […] (SEQ ID NO:34) was designed for the endogenous Nicotiana benthamiana phytoene desaturase (PDS) gene, which has the cDNA sequence fragments […] […] (SEQ ID NO:38). Anti-sense polynucleotides with the sequences […] (SEQ ID NO:279), […] (SEQ ID NO:280), […] (SEQ ID NO:281), […] (SEQ ID NO:282), […] (SEQ ID NO:283), and […] (SEQ ID NO:284) were designed for the endogenous Nicotiana benthamiana 5-enolpyruvylshikimate-3-phosphate synthase (EPSPS) gene, based on the Nicotiana benthamiana EPSPS cDNA sequence […] […] (SEQ ID NO:285), […] […] (SEQ ID NO:286), and […] […] (SEQ ID NO:287). Anti-sense polynucleotides with the sequences […] (AK195, RBCS—1-2-3-4, SEQ ID NO:288), […] (AK196, RBCS—1-2-3-4, SEQ ID NO:289), […] (AK197, RBCS—1-2-3-4, SEQ ID NO:290), […] (AK198, RBCS—1-2, SEQ ID NO:291), […] (AK199, RBCS—1-2, SEQ ID NO:292), […] (AK200, RBCS—3-4, SEQ ID NO:293), […] (AK201, RBCS—3-4, SEQ ID NO:294), and […] (AK202, RBCS—3-4, SEQ ID NO:295) were designed for the endogenous Nicotiana benthamiana ribulose-1,5-bisphosphate carboxylase oxygenase (RuBisCO) gene, based on the Nicotiana benthamiana chloroplastic RuBisCO small chain 2A cDNA sequence fragments • […] […]

[2] = system: Nicotiana benthamiana phytoene desaturase; test: topical PDS oligonucleotides/polynucleotides on tobacco, bleaching and chlorophyll (Example 10); format: in vivo; details: another assay
Source text: The target gene used was a Nicotiana benthamiana phytoene desaturase (SEQ ID NO:2), shown in FIG. 10; the segment consisting of nucleotides 421-1120 of SEQ ID NO:2 (underlined text in FIG. 10) was used to design a 700-mer dsRNA polynucleotide (“PDS 700-mer”) and the segment consisting of nucleotides 914-1113 of SEQ ID NO:2 (bolded underlined text in FIG. 10) was used to design a 200-mer dsRNA polynucleotide (“PDS 200-mer”). FIG. 11 schematically depicts the location of the sequences of these oligonucleotides and polynucleotides in relation to the […] (SEQ ID NO:2) sequence. Non-plant sequences obtained from corn rootworm (“CRW”), SEQ ID NOs:27, 28, 29, and 30 were used as non-homologous controls. Some of the polynucleotides included a T7 promoter sequence (indicated by lower-case text in Table 3) that is a promoter recognized by a bacteriophage T7 RNA polymerase.
The following procedure was used for all assays described in this example. Four-week old Nicotiana benthamiana plants were used in all assays. Plants were treated with 0.1% SILWET L-77® brand surfactant solution freshly made with ddH2O. Two fully expanded leaves per plant (one cotyledon, one true leaf) were dipped into the SILWET L-77® brand surfactant solution for a few seconds, and allowed to dry for 15-30 minutes before application of the polynucleotide composition. Final concentration for each oligonucleotide or polynucleotide was 25 microM (in 0.01% SILWET L-77® brand surfactant, 5 mM sodium phosphate buffer, pH 6.8) unless otherwise stated. 20 microliters of the solution was applied to the top surface of each of the two pre-treated leaves to provide a total of 40 microliters (1 nmol oligonucleotide or polynucleotide) for each plant. Leaf bleaching was observed 3 days post treatment.
FIG. 13 illustrates phenotypes observed at day 12 after treatment in another assay of the effect from twelve combinations of polynucleotides or oligonucleotides (see Table 4). Table 4 also lists observations of visible bleaching of the plants at day 5 after treatment and the results of chlorophyll measurements taken at days 7 and 12 after treatment. Chlorophyll measurements are an indication of suppression of the target gene phytoene desaturase, and measurements were taken at 6 spots on the apical area, focussing on visibly bleached leaves or (in plants without visible bleaching) on leaves in equivalent locations on the plants; lower chlorophyll measurement values indicate suppression of phytoene desaturase.

**Q.** What does the source list for “CATCTCCTTTAATTGTACTGC (DNA, backbone not given here) [PDS 21-mer anti-sense ssDNA]”?
**A.** plant height (FIGS. 36A-36C) ([1]; 12 days (PDS and EPSPS) or 10 days (RuBisCO) after treatment): severe stunting; other phenotype ([1]; PDS 25 nanomoles, EPSPS and RuBisCO 50 nanomoles of each polynucleotide per plant): bleaching; bleaching of apical leaves (FIG. 15) [2]: apical leaf bleaching observed
